According to patent publication US6555692B1, “Preparation and use of bifunctional molecules having DNA sequence binding specificity” (California Institute of Technology, priority 1996, dated 2003):

What was measured:
Assay type in all cases: binding
5′-TGTCAGACA-3′ = experiment: Recognition of 9-11 base pairs (Table 9); settings: 22° C. and pH 7.0
From the text: (§1) Table 9 illustrates recognition of recognition of 9-11 base pairs by ImPyPy-X-ImPyPy-β-Dp.

5′-TGTCAAGACA-3′ = experiment: Recognition of 9-11 base pairs (Table 9); settings: 22° C. and pH 7.0
From the text: as §1

5′-TGTCAAAGACA-3′ = experiment: Recognition of 9-11 base pairs (Table 9); settings: 22° C. and pH 7.0
From the text: as §1

5′-gcggtTGTCAacccg-3′ = experiment: Recognition of 9-11 base pairs (Table 9); settings: 22° C. and pH 7.0
From the text: as §1

5′-AACCAAGTACTTGGTA-3′ = experiment: Association constants, recognition of 16 base pairs
From the text: Table 8 illustrates recognition of 16 Base-Pairs by ImPyPyPy-X-ImImPy-γ-PyPyPy-β-Dp.

| Structure (SMILES) | 5′-TGTCAGACA-3′ (5′-TGTCAGACA-3′) | 5′-TGTCAAGACA-3′ (5′-TGTCAAGACA-3′) | 5′-TGTCAAAGACA-3′ (5′-TGTCAAAGACA-3′) | 5′-gcggtTGTCAacccg-3′ (5′-gcggtTGTCAacccg-3′) | Ka (5′-gcggtTGTCAacccg-3′) [M⁻¹] | Specificity 5′-AACCAACTAGTTGGTA (5′-AACCAAGTACTTGGTA-3′; Table 8, center mismatch) | Specificity 5′-AACCAAGTACTTGCGA (5′-AACCAAGTACTTGGTA-3′; Table 8, edge mismatch) | Ka 5′-AACCAAGTACTTGGTA (5′-AACCAAGTACTTGGTA-3′; Table 8, match site) |
| --- | --- | --- | --- | --- | --- | --- | --- | --- |
| CN(C)CCCNC(=O)CCNC(=O)c1cc(NC(=O)c2cc(NC(=O)c3nc(NC(=O)CCCCCCCNC(=O)c4cc(NC(=O)c5cc(NC(=O)c6nccn6C)cn5C)cn4C)cn3C)cn2C)cn1C [ImPyPy-C8-ImPyPy-β-Dp] | 1 × 10^7 | 3 × 10^7 | 1 × 10^7 | 1 × 10^7 | – | – | – | – |
| CN(C)CCCNC(=O)CCNC(=O)c1cc(NC(=O)c2cc(NC(=O)c3nc(NC(=O)CCCCCCCCCCNC(=O)c4cc(NC(=O)c5cc(NC(=O)c6nccn6C)cn5C)cn4C)cn3C)cn2C)cn1C [ImPyPy-C11-ImPyPy-β-Dp] | 5 × 10^6 | 2 × 10^7 | 2 × 10^7 | 1 × 10^7 | – | – | – | – |
| CN(C)CCCNC(=O)CCNC(=O)c1cc(NC(=O)c2cc(NC(=O)c3nc(NC(=O)CNC(=O)c4cc(NC(=O)c5cc(NC(=O)c6nccn6C)cn5C)cn4C)cn3C)cn2C)cn1C [ImPyPy-G-ImPyPy-β-Dp] | 1 × 10^8 | 3 × 10^7 | 3 × 10^7 | 3 × 10^7 | – | – | – | – |
| CN(C)CCCNC(=O)CCNC(=O)c1cc(NC(=O)c2cc(NC(=O)c3nc(NC(=O)CCNC(=O)c4cc(NC(=O)c5cc(NC(=O)c6nccn6C)cn5C)cn4C)cn3C)cn2C)cn1C [ImPyPy-β-ImPyPy-β-Dp] | 2 × 10^8 | 2 × 10^8 | 1 × 10^9 | 1 × 10^9 | – | – | – | – |
| CN(C)CCCNC(=O)CCNC(=O)c1cc(NC(=O)c2cc(NC(=O)c3nc(NC(=O)CCNC(=O)c4cc(NC(=O)CCNC(=O)c5cc(NC(=O)c6cc(NC(=O)c7nccn7C)cn6C)cn5C)cn4C)cn3C)cn2C)cn1C [ImPyPy-β-Py-β-ImPyPy-β-Dp] | 3 × 10^8 | 2 × 10^8 | 1 × 10^9 | – | < 1e+08 | – | – | – |
| CN(C)CCCNC(=O)CCNC(=O)c1cc(NC(=O)c2cc(NC(=O)c3cc(NC(=O)CCNC(=O)c4cc(NC(=O)c5cc(NC(=O)c6nccn6C)cn5C)cn4C)cn3C)cn2C)cn1C [ImPyPy-β-PyPyPy-β-Dp] | 2 × 10^8 | 5 × 10^7 | 5 × 10^7 | 3 × 10^7 | – | – | – | – |
| CN(C)CCCNC(=O)CCNC(=O)c1cc(NC(=O)c2cc(NC(=O)c3nc(NC(=O)CCNC(=O)CCNC(=O)c4cc(NC(=O)c5cc(NC(=O)c6nccn6C)cn5C)cn4C)cn3C)cn2C)cn1C [ImPyPy-β-β-ImPyPy-β-Dp] | 1 × 10^7 | 5 × 10^7 | 1 × 10^7 | 2 × 10^7 | – | – | – | – |
| CN(C)CCCNC(=O)CCNC(=O)c1cc(NC(=O)c2cc(NC(=O)c3nc(NC(=O)CCNC(=O)CCNC(=O)CCNC(=O)c4cc(NC(=O)c5cc(NC(=O)c6nccn6C)cn5C)cn4C)cn3C)cn2C)cn1C [ImPyPy-β-β-β-ImPyPy-β-Dp] | 1 × 10^7 | 1 × 10^7 | 7 × 10^7 | 1 × 10^7 | – | – | – | – |
| CN(C)CCCNC(=O)CCNC(=O)c1cc(NC(=O)c2cc(NC(=O)c3nc(NC(=O)CCCNC(=O)c4cc(NC(=O)c5cc(NC(=O)c6nccn6C)cn5C)cn4C)cn3C)cn2C)cn1C [ImPyPy-γ-ImPyPy-β-Dp] | 5 × 10^7 | 1 × 10^8 | 1 × 10^8 | 2 × 10^8 | – | – | – | – |
| CN(C)CCCNC(=O)CCNC(=O)c1cc(NC(=O)c2cc(NC(=O)c3cc(NC(=O)CCCNC(=O)c4cc(NC(=O)c5nc(NC(=O)c6nc(NC(=O)CCCCNC(=O)c7cc(NC(=O)c8cc(NC(=O)c9cc(NC(=O)c%10nccn%10C)cn9C)cn8C)cn7C)cn6C)cn5C)cn4C)cn3C)cn2C)cn1C [ImPyPyPy-C5-ImImPy-γ-PyPyPy-β-Dp] | – | – | – | – | – | >3 | >3 | 7 × 10^8 |
